Like-named read-outs stand apart in the source and are kept apart here.
Columns and labels:
DHODH enzyme = DHODH enzyme (Homo sapiens, UniProt Q02127); experiment: DHODH enzyme inhibitory activity in vitro (resazurin fluorescence); assay type: biochemical; details: 5 nM DHODH, 15 μM L-DHO, 80 μM Resazurin
Description: The DHODH inhibitory activity of the compounds was detected by the following experimental method, and the experimental results are as shown in Table 1.
DHODH uses flavin mononucleotide FMN to catalyze the oxidation of dihydrooratic acid DHO to produce oratic acid, while the re-oxidation of FMN requires the participation of coenzyme CoQ. In the experiment of detecting the DHODH enzyme activity, CoQ was replaced by Resazurin dye as the final electron acceptor in the enzyme activity reaction. Resazurin solution is blue, and the resorufin generated after reduction has red fluorescence, and the fluorescence signal can be detected under the 535 nm of excitation wavelength and the 590 nm of emission wavelength. The components of the reaction buffer used in the experiment were 100 mM Hepes pH 7.0, 150 mM NaCl, 0.3% CHAPS, 0.5 mg/mL BSA, 0.1 μM FMN and 1% DMSO. The final concentration of DHODH enzyme in the reaction system was 5 nM, and the final concentration of substrate L-DHO was 15 μM, the final concentration of indicator Resazurin was 80 μM. The components of the reaction stop buffer were 100 mM Hepes pH 7.0 and 5 mM Orotate. The specific method was as follows: 2-fold final concentration of the DHODH enzyme solution was mixed with the compound, incubated at room temperature for 20 min, 2-fold final concentration of the substrate mixture solution of L-DHO and resazurin was added and reacted, incubated at room temperature away from light for 45 min. Then the reaction was stopped by adding 2-fold final concentration of the reaction stop buffer to the reaction system, and incubated at room temperature for 10 min, the fluorescence signal of the reaction system was detected with EnVision under the condition of Ex/Em=535/590 nm.

[1] = tested on: human peripheral blood mononuclear cells; experiment: Proliferation inhibition of peripheral blood mononuclear cells (flow cytometry); assay type: cell-based; details: PBMC, PHA-M 5 μg/mL stimulation, 48 hours
Procedure: Flow cytometry was used to detect cell proliferation of human peripheral blood mononuclear cells.
• Cell complete medium: 445 mL of RPMI1640 cell culture+50 mL of fetal bovine serum+5 mL of double antibody • Buffer 1: 9.9 mL of phosphate buffer+0.1 mL of 10% bovine serum protein • Buffer 2: 10 mL of fetal bovine serum+490 mL of phosphate buffer 3.2 Cell Thawing • 3.2.1 20 mL of cell complete medium was added to a 50 mL of centrifuge tube and pre-heated in a 37° C. water bath for 5 minutes; • 3.2.2 the cell cryotubes were removed from the liquid nitrogen storage tank and placed on dry ice for 5-10 minutes to allow the liquid nitrogen to evaporate fully; • 3.2.3 the cell cryotubes were clamped with forceps and placed in the water bath, and shaken gently to thaw the frozen cells quickly; • 3.2.4 the thawed cells were transferred to the pre-heated cell complete medium with a pipette, centrifuged at 350 g for 5 min, then the supernatant was discarded, and the cells was resuspended by adding 10 mL of phosphate buffer; • 3.2.5 counting by cell counter, and cell viability and cell count were recorded. 3.3 Cell Labeling • 3.3.1 Cell proliferation labeling solution (CellTrace™ Violet, 1:1000 dilution) was prepared • 3.3.2 the above mixture was centrifuged at 350 g for 5 minutes, and the supernatant was discarded, then the cells (20×10^6/mL) were resuspended by adding Buffer 1, and the resuspended cells were gently blown by pipette, and an equal volume of cell proliferation labeling solution (prepared in 3.3.1) was added, and gently blown well by pipette; • 3.3.3 incubating in a 5% CO2, 37° C. cell incubator for 18 minutes; • 3.3.4 the 5-fold volume of cell complete medium was added and leaved at room temperature for 5 minutes to terminate the staining reaction; • 3.3.5 the above mixture was centrifuged at 350 g for 5 minutes, and the supernatant was discarded, then the cells were resuspended by adding 10 mL of cell complete medium, counted by cell counter, and cell viability and cell count were recorded; • 3.3.6 the above mixture was centrifuged at 350 g for 5 minutes, and the supernatant was discarded, then the corresponding volume of cell complete medium was added according to the cell counting results, and the density of the resuspended cells was 2×10^6/mL and was to be used. 3.4 Cell Proliferation Stimulation • 3.4.1 50 μL/well prepared cell suspension (1×10^5 cells/well), 50 μL of 4×PHA-M (the final concentration is 5 μg/mL), 50 μL of 4×test compound, 50 μL of cell complete medium were added to the wells of 96-well cell culture plate, and the corresponding control group was set up; (total volume of the reaction system is 200 μL) • 3.4.2 the cell culture plate was placed and incubated in a 5% CO2, 37° C. cell incubator for 48 hours. 3.5 Cell Proliferation Detection • 3.5.1 the above mixture was centrifuged at 350 g for 5 minutes and the supernatant was transferred to a new cell culture plate and stored at −80° C.; • 3.5.2 200 μL of Buffer 2 was add to the wells of the culture plate, and the above mixture was centrifuged at 350 g and the supernatant was discarded; • 3.5.3 cell dead or living staining solution (7-AAD, 1:100 dilution) was prepared with Buffer 2; • 3.5.4 100 μL/well of dead or living staining solution was added, and gently blown and mixed well by pipette, and stained at room temperature for 10 min; • 3.5.5 cell proliferation was detected by flow cytometry analyzer and analyzed by Flowjo software.

[2] = tested on: influenza virus A/Weiss/43 (H1N1); experiment: Influenza virus cytopathic effect (CPE) experiment in MDCK cells; assay type: cell-based; details: unidentified influenza virus, H1N1, 120 h, 5 days incubation, CCK8
[3] = Pharmacokinetic evaluation in mice (IV and PO); assay type: in vivo, female Balb/c mice; details: for AUC(0-inf) / AUC(0-t) / clearance / half-life / MRT last / Vd / Tmax / C0 / Cmax: female, Balb/c, mouse, plasma; for MRT last: read-out: MRT0-last; for Vd: read-out: VdSS
Procedure: Experiment process: 0.04 mg/mL of a clarified solution of the test compound in 5% DMSO/10% Solutol solution/85% water was injected into female Balb/c mice (overnight fasting, 7-9 weeks of age) via tail vein, with dosage of 0.2 mg/kg. 0.1 mg/mL of the test compound in 5% DMSO/10% Solutol solution/0.2% Tween80/84.8% water was administered by gavage to female Balb/c mice (overnight fasting, 7-9 weeks of age), with dosage of 1 mg/kg. About 30 μL of blood was collected from the jugular vein at 0.0833, 0.25, 0.5, 1.0, 2.0, 4.0, 8.0, 10 and 24 h and from the tail vein at 0.25, 0.5, 1.0, 2.0, 4.0, 8.0 and 24 h after administration for both groups of animals, and were placed in anticoagulation tubes with EDTA-K2, and the blood was separated by centrifugation to obtain plasma. Plasma concentrations were detected by LC-MS/MS, and relevant pharmacokinetic parameters were calculated using WinNonlin™ Version 6.3 (Pharsight, Mountain View, CA) pharmacokinetic software with a non-compartmental model linear logarithmic trapezoid method.

MDR1 (P-glycoprotein) = experiment: Permeability evaluation on MDR1-MDCK II cell line; details: dog, MDCK-MDR1, pH 7.4

Sequence of DHODH enzyme (Q02127 whole entry): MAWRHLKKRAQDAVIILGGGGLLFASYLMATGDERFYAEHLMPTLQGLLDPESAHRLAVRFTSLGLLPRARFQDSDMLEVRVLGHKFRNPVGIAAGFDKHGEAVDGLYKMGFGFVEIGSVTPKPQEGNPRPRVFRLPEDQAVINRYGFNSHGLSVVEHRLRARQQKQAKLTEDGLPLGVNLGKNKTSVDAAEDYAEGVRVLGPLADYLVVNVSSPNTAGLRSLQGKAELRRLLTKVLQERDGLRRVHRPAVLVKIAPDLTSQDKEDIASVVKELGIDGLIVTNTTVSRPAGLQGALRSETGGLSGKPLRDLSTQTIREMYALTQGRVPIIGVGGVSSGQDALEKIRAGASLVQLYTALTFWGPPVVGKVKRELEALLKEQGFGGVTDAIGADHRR

Compound: CCn1c(CO)nn(-c2nc(O[C@@H](C)C(F)(F)F)c(/C(F)=C/c3ncccc3Cl)cc2F)c1=O [Compound 25]
- IC50 (DHODH enzyme): 6 nM
- IC50 [1]: 2 nM

Compound: CCn1c(C(=O)O)nn(-c2cc(O[C@@H](C)C(F)(F)F)c(/C(F)=C/c3ncccc3Cl)cc2F)c1=O [Compound 24]
- IC50 (DHODH enzyme): 8 nM

Compound: CCn1c(CO)nn(-c2nc(O[C@@H](C)C(F)(F)F)c(/C=C/c3c(F)cccc3Cl)cc2F)c1=O [Compound 36]
- IC50 (DHODH enzyme): 1.5 nM
- EC50 [2]: 10 nM
- IC50 [1]: 5.9 nM

Compound: CCn1c(CO)nn(-c2cc(OC(C)C(F)(F)F)c(C=Cc3ncccc3Cl)cc2F)c1=O (centres unmarked) [Compound 22]
- IC50 (DHODH enzyme): 121 nM

Compound: CCn1c(C(=O)O)nn(-c2cc(O[C@@H](C)C(F)(F)F)c(/C(F)=C/c3c(F)cncc3Cl)cc2F)c1=O [Compound 21]
- IC50 (DHODH enzyme): 9 nM

Compound: CCn1c(CO)nn(-c2cc(O[C@@H](C)C(F)(F)F)c(/C(F)=C/c3ncccc3C(F)F)cc2F)c1=O [Compound 30]
- IC50 (DHODH enzyme): 8 nM

Compound: CCn1c(CO)nn(-c2cc(O[C@@H](C)C(F)(F)F)c(/C(F)=C/c3cccnc3)cc2F)c1=O [Compound 40]
- IC50 (DHODH enzyme): 7.3 nM

Compound: CCn1c(CO)nn(-c2cc(O[C@@H](C)C(F)(F)F)c(/C=C/c3cccnc3C(F)F)cc2F)c1=O [Compound 38]
- IC50 (DHODH enzyme): 26.5 nM

Compound: CCn1c(CO)nn(-c2cc(O[C@@H](C)C(F)(F)F)c(/C(F)=C/c3cccnc3C(F)F)cc2F)c1=O [Compound 39]
- IC50 (DHODH enzyme): 1.3 nM
- EC50 [2]: 42 nM
- IC50 [1]: 14.4 nM
- Tlast ([3]; IV 0.2 mg/kg): 24.0 h
- F ([3]; PO 1 mg/kg): 97.4%
- Tlast ([3]; PO 1 mg/kg): 24.0 h
- AUC(0-inf) ([3]; IV 0.2 mg/kg): 2.24 µM·h
- AUC(0-t) ([3]; IV 0.2 mg/kg): 1.84 µM·h
- clearance ([3]; IV 0.2 mg/kg): 2.86 mL/min/kg
- half-life ([3]; IV 0.2 mg/kg): 10.4 h
- MRT last ([3]; IV 0.2 mg/kg): 7.83 h
- Vd ([3]; IV 0.2 mg/kg): 2.31 L/kg
- AUC(0-inf) ([3]; PO 1 mg/kg): 10.6 µM·h
- AUC(0-t) ([3]; PO 1 mg/kg): 8.95 µM·h
- Tmax ([3]; PO 1 mg/kg): 1.5 h
- half-life ([3]; PO 1 mg/kg): 8.86 h
- MRT last ([3]; PO 1 mg/kg): 8.67 h
- C0 ([3]; IV 0.2 mg/kg): 419 nM
- Cmax ([3]; PO 1 mg/kg): 787 nM
- Papp A→B at 150 min, 2 μM (MDR1 (P-glycoprotein)): 10.1 ×10⁻⁶ cm/s
- Papp B→A at 150 min, 2 μM (MDR1 (P-glycoprotein)): 13.9 ×10⁻⁶ cm/s
- Papp at 150 min, 2 μM (MDR1 (P-glycoprotein)): > 5.5 ×10⁻⁶ cm/s
- efflux ratio at 150 min, 2 μM (MDR1 (P-glycoprotein)): 1.37

Compound: CCn1c(CO)nn(-c2cc(O[C@@H](C)C(F)(F)F)c(/C=C/c3cccnc3Cl)cc2F)c1=O [Compound 37]
- IC50 (DHODH enzyme): 31.8 nM

Compound: CCn1c(CO)nn(-c2cc(O[C@@H](C)C(F)(F)F)c(/C(F)=C/c3cnccc3C)cc2F)c1=O [Compound 27]
- IC50 (DHODH enzyme): 1.5 nM

Compound: CCn1c(CO)nn(-c2cc(O[C@@H](C)C(F)(F)F)c(/C(F)=C/c3cnccc3Cl)cc2F)c1=O [Compound 28]
- IC50 (DHODH enzyme): 2.4 nM
- EC50 [2]: 43 nM
- IC50 [1]: 8.4 nM
- Papp A→B at 150 min, 2 μM (MDR1 (P-glycoprotein)): 8.65 ×10⁻⁶ cm/s
- Papp B→A at 150 min, 2 μM (MDR1 (P-glycoprotein)): 10.7 ×10⁻⁶ cm/s
- Papp at 150 min, 2 μM (MDR1 (P-glycoprotein)): > 5.5 ×10⁻⁶ cm/s
- efflux ratio at 150 min, 2 μM (MDR1 (P-glycoprotein)): 1.24

Compound: CCn1c(CO)nn(-c2cc(O[C@@H](C)C(F)(F)F)c(/C=C/c3cccnc3OC)cc2F)c1=O [Compound 23]
- IC50 (DHODH enzyme): 9 nM

Compound: CCn1c(CO)nn(-c2cc(O[C@@H](C)C(F)(F)F)c(/C(F)=C/c3cnccc3C(F)F)cc2F)c1=O [Compound 32]
- IC50 (DHODH enzyme): 3.9 nM

Compound: CCn1c(CO)nn(-c2cc(O[C@@H](C)C(F)(F)F)c(/C(F)=C/c3c(F)cncc3Cl)cc2F)c1=O [Compound 2]
- IC50 (DHODH enzyme): 3.9 nM
- EC50 [2]: 20 nM

Compound: CCn1c(CO)nn(-c2cc(O[C@@H](C)C(F)(F)F)c(/C(F)=C/c3cccnc3OC)cc2F)c1=O [Compound 6]
- IC50 (DHODH enzyme): 12.4 nM
- EC50 [2]: 67 nM
- Tlast ([3]; IV 0.2 mg/kg): 24.0 h
- F ([3]; PO 1 mg/kg): 85.4%
- Tlast ([3]; PO 1 mg/kg): 24.0 h
- AUC(0-inf) ([3]; IV 0.2 mg/kg): 2.13 µM·h
- AUC(0-t) ([3]; IV 0.2 mg/kg): 1.96 µM·h
- clearance ([3]; IV 0.2 mg/kg): 3.14 mL/min/kg
- half-life ([3]; IV 0.2 mg/kg): 6.83 h
- MRT last ([3]; IV 0.2 mg/kg): 5.93 h
- Vd ([3]; IV 0.2 mg/kg): 1.53 L/kg
- AUC(0-inf) ([3]; PO 1 mg/kg): 9.08 µM·h
- AUC(0-t) ([3]; PO 1 mg/kg): 7.79 µM·h
- Tmax ([3]; PO 1 mg/kg): 2 h
- half-life ([3]; PO 1 mg/kg): 9.19 h
- MRT last ([3]; PO 1 mg/kg): 7.76 h
- C0 ([3]; IV 0.2 mg/kg): 640 nM
- Cmax ([3]; PO 1 mg/kg): 935 nM
- Papp A→B at 150 min, 2 μM (MDR1 (P-glycoprotein)): 3.72 ×10⁻⁶ cm/s
- Papp B→A at 150 min, 2 μM (MDR1 (P-glycoprotein)): 3.55 ×10⁻⁶ cm/s
- Papp at 150 min, 2 μM (MDR1 (P-glycoprotein)): 1 to 5.5 ×10⁻⁶ cm/s
- efflux ratio at 150 min, 2 μM (MDR1 (P-glycoprotein)): 0.95

Compound: CCn1c(CO)nn(-c2cc(O[C@@H](C)C(F)(F)F)c(/C(F)=C/c3c(F)cccc3Cl)cc2F)c1=O [Compound 1]
- IC50 (DHODH enzyme): 0.71 nM
- EC50 [2]: < 1 nM

Compound: CCn1c(CO)nn(-c2cc(O[C@@H](C)C(F)(F)F)c(/C(F)=C/c3cccc(NC(=O)C4CC4)c3)cc2F)c1=O [Compound 29]
- IC50 (DHODH enzyme): 4.7 nM

Compound: CCn1c(CO)nn(-c2cc(O[C@@H](C)C(F)(F)F)c(/C=C/c3c(F)cccc3Cl)cc2F)c1=O [Compound 35]
- IC50 (DHODH enzyme): 2.6 nM
- EC50 [2]: 42 nM

From patent US12606540B2, “Triazolone compound” (MEDSHINE DISCOVERY INC., priority 2020, dated 2026)
